From ChEMBL document CHEMBL5344425, “Discovery of 5-(Pyrimidin-2-ylamino)-1H-indole-2-carboxamide Derivatives as Nur77 Modulators with Selective and Potent Activity Against Triple-Negative Breast Cancer” (J Med Chem, 2023)
Activity calls are given as the source filed them. The calls are words filed in the database; no cut-off is given here.

Key:
[1] = target: T1, Retinoic acid receptor RXR-alpha (Homo sapiens) (UniProt P19793); assay: Antagonist activity at RXRalpha (unknown origin) transfected in HEK293T cells cotransfected with pG5-Luc assessed as inhibition of receptor transcriptional activity at 2 uM measured after 12 hrs by luciferase reporter gene assay; type: cell-based
T1 sequence (whole entry): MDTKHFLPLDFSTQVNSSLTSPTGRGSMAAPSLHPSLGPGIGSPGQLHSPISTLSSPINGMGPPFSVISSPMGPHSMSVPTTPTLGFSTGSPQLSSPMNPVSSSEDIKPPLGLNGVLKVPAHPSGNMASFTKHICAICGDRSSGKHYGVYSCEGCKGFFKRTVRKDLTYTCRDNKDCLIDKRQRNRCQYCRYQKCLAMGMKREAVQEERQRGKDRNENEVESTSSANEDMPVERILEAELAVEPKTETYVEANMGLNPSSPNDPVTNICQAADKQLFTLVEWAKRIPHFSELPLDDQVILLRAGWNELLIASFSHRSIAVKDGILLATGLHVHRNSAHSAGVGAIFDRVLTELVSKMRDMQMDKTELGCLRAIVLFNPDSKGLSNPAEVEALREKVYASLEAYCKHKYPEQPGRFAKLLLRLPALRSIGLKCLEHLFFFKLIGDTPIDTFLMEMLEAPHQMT

[2] = system: HCC1806; assay: Antiproliferative activity against human HCC1806 cells assessed as inhibition of cell growth measured after 24 hrs by MTT assay; type: functional, cell-based; settings: HCC1806, 24 h
[3] = system: MDA-MB-231; assay: Induction of apoptosis in human MDA-MB-231 cells transfected with Nur77 siRNA assessed as loss of mitochondrial membrane potential at 2 uM measured after 6 hrs by JC-1 staining based flow cytometry (reference value: 6.1%); type: functional
[4] = system: MDA-MB-231; assay: Induction of apoptosis in human MDA-MB-231 cells assessed as increase in Tunel-488 […] at 1 uM measured after 6 hrs by confocal microscopy; type: functional, cell-based
[5] = target: T2, Nuclear receptor subfamily 4immunitygroup A member 1 (Homo sapiens, UniProt P22736); assay: Induction of degradation of Myc-tagged Nur77 (unknown origin) transfected in human MDA-MB-231 cells at 2 to 5 uM measured after 6 hrs by western blot analysis; type: cell-based; settings: dose 2-5 µM
[6] = system: MDA-MB-231; assay: Induction of apoptosis in human MDA-MB-231 cells assessed as proportion of late apoptotic cells at 0.63 uM measured after 5 hrs by AnnexinV-FITC/PI staining based flow cytometry (reference value: 2.55%); type: functional
[7] = target: T2, Nuclear receptor subfamily 4immunitygroup A member 1; assay: Binding affinity to His-tagged Nur77 ligand binding domain (unknown origin) by surface plasmon resonance assay
[8] = system: T47D; assay: Antiproliferative activity against human T47D cells transfected with Nur77 siRNA assessed as inhibition of cell growth measured after 24 hrs by MTT assay; type: functional, cell-based
[9] = target: T2, Nuclear receptor subfamily 4immunitygroup A member 1; assay: Antagonist activity at Nur77 ligand binding domain (unknown origin) transfected in HEK293T cells cotransfected with pG5-Luc assessed as inhibition of receptor transcriptional activity at 1 uM measured after 12 hrs by luciferase reporter gene assay; type: cell-based; settings: filed as antagonist
[10] = system: T47D; assay: Antiproliferative activity against human T47D cells assessed as inhibition of cell growth measured after 24 hrs by MTT assay; type: functional, cell-based
[11] = target: T2, Nuclear receptor subfamily 4immunitygroup A member 1; assay: Modulation of Nur77 in human MDA-MB-231 cells assessed as increase in TP53 phosphorylation at Ser392 residue at 0.31 to 5 uM measured after 6 hrs by western blot analysis; type: cell-based; settings: dose 0.31-5 µM
[12] = system: BT-549; assay: Antiproliferative activity against human BT-549 cells assessed as inhibition of cell growth measured after 24 hrs by MTT assay; type: functional, cell-based; settings: BT-549, 24 h
[13] = system: MDA-MB-231; assay: Induction of apoptosis in human MDA-MB-231 cells transfected with Nur77 siRNA assessed as loss of mitochondrial membrane potential at 1 uM measured after 6 hrs by JC-1 staining based flow cytometry (reference value: 6.1%); type: functional
[14] = system: SW-620; assay: Antiproliferative activity against human SW620 cells assessed as inhibition of cell growth measured after 24 hrs by MTT assay; type: functional, cell-based; settings: SW-620, 24 h
[15] = system: MDA-MB-231; assay: Induction of apoptosis in human MDA-MB-231 cells transfected with Myc-Nur77 R184A mutant assessed as PARP cleavage at 2 to 5 uM measured after 6 hrs by western blot analysis; type: functional, cell-based; settings: dose 2-5 µM
[16] = system: MDA-MB-231; assay: Induction of apoptosis in human MDA-MB-231 cells assessed as PARP cleavage at 2.5 uM pretreated with proteasome and calpain inhibitor, MG132 for 4 hrs followed by compound addition and measured after 6 hrs by western blot analysis; type: functional, cell-based
[17] = system: HCT-116; assay: Antiproliferative activity against human HCT-116 cells assessed as inhibition of cell growth measured after 24 hrs by MTT assay; type: functional, cell-based; settings: HCT-116, 24 h
[18] = Selectivity index, ratio of IC50 for cytotoxicity against human MCF-10A cells to IC50 for antiproliferative activity against human T47D cells; type: toxicity, cell-based; settings: MCF-10A cells versus T47D cells, read-out: Ratio IC50
[19] = system: MDA-MB-231; assay: Induction of apoptosis in human MDA-MB-231 cells transfected with ctr siRNA assessed as loss of mitochondrial membrane potential at 1 uM measured after 6 hrs by JC-1 staining based flow cytometry (reference value: 13.93%); type: functional
[20] = system: MDA-MB-231; assay: Induction of apoptosis in human MDA-MB-231 cells transfected with Nur77 siRNA assessed as early apoptotic cells at 2 uM measured after 6 hrs by AnnexinV-FITC/PI staining based flow cytometry (reference value: 1.88%); type: functional
[21] = system: MDA-MB-231; assay: Induction of apoptosis in human MDA-MB-231 cells assessed as PARP cleavage at 2 uM by western blot analysis; type: functional, cell-based; settings: time 1-5 hrs, TDE = time-dependent effect
[22] = target: T2, Nuclear receptor subfamily 4immunitygroup A member 1; assay: Binding affinity to His-tagged Nur77 ligand binding domain (unknown origin) at 10 uM by surface plasmon resonance assay; settings: filed as modulator
[23] = system: Nuclear receptor subfamily 4immunitygroup A member 1 (Homo sapiens), P22736 [UNDEFINED MUTATION]; assay: Induction of degradation of Myc-tagged Nur77 R184A mutant (unknown origin) transfected in human MDA-MB-231 cells at 2 to 5 uM measured after 6 hrs by western blot analysis; type: cell-based; settings: dose 2-5 µM
[24] = system: MDA-MB-231; assay: Induction of apoptosis in human MDA-MB-231 cells transfected with Nur77 siRNA assessed as late apoptotic cells at 1 uM measured after 6 hrs by AnnexinV-FITC/PI staining based flow cytometry (reference value: 3.97%); type: functional
[25] = system: MDA-MB-231; assay: Induction of apoptosis in human MDA-MB-231 cells transfected with Nur77 siRNA assessed as late apoptotic cells at 2 uM measured after 6 hrs by AnnexinV-FITC/PI staining based flow cytometry (reference value: 3.97%); type: functional
[26] = system: MDA-MB-231; assay: Induction of apoptosis in human MDA-MB-231 cells transfected with ctr siRNA assessed as late apoptotic cells at 2 uM measured after 6 hrs by AnnexinV-FITC/PI staining based flow cytometry (reference value: 3.97%); type: functional
[27] = system: MCF7; assay: Antiproliferative activity against human MCF7 cells assessed as inhibition of cell growth measured after 24 hrs by MTT assay; type: functional, cell-based; settings: MCF7, 24 h

T2 sequence (P22736 whole entry): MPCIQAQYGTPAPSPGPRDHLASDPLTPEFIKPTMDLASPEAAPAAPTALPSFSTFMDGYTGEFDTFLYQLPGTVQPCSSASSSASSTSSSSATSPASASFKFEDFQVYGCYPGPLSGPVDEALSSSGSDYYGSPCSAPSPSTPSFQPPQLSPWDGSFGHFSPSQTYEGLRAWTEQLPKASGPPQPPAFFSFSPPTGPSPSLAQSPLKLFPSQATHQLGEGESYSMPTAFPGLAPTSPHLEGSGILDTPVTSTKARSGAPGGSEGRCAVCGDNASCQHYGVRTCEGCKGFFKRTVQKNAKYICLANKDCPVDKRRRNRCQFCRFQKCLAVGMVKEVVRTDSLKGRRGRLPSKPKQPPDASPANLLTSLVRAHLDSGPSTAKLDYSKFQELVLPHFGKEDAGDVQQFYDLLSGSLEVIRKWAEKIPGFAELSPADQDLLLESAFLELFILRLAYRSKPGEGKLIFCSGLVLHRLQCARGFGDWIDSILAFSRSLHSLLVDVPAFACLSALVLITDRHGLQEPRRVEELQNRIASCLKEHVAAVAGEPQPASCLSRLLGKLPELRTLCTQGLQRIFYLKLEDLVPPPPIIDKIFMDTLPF
Nuclear receptor subfamily 4immunitygroup A member 1 (Homo sapiens), P22736 [UNDEFINED MUTATION], sequence (P22736 whole entry, looked up, stated change not applied): as the sequence (P22736 whole entry) above

In the case of `CCN(CC)CCCNC(=O)c1cc2cc(Nc3nccc(-c4sc(NC)nc4C)n3)ccc2[nH]1`, the inhibition [1] is reported as “inactive”, the IC50 [2] is reported as 380 nM and the Activity [3] is reported as 15.41%. For the same compound, the Activity [4] was “Active”, the Activity [5] was “Active” and the Activity [6] was 5.16%. The Kd [7] was 91 nM, the IC50 [8] was 6340 nM and the inhibition [9] was “Active”. For the same compound, the IC50 [10] was 1050 nM, the Activity [11] was “inactive” and the IC50 [12] was 2120 nM. For the same compound, the Activity [13] was 8.57%, the IC50 [14] was 18100 nM and the Activity [15] was “inactive”. For the same compound, the Activity [16] was “inactive”, the IC50 [17] was 9840 nM and the selectivity ratio [18] was 45.7. The Activity [19] was 35.26%, the Activity [20] was 2.5% and the Activity [21] was “Tde”. For the same compound, the Activity [22] was “Active”, the Activity [23] was “inactive” and the Activity [24] was 2.24%. It also gave an Activity [25] of 2.36%, an Activity [26] of 13.04% and an IC50 [27] of 720 nM.
